Read-outs that look alike come from different tables or passages of the source. Oligonucleotides are written 5' to 3', each unit as a sugar letter and its base; * is a phosphorothioate linkage, no mark a phosphodiester; rarer units and linkages stand in square brackets, end groups in braces. Plain capitals give the bases only. e = 2'-O-(2-methoxyethyl) (MOE); [5mC] = 5-methylcytosine; d = 2'-deoxy (DNA)
Assays:
[1] = tested on: human glucose-6-phosphatase translocase mRNA; test: Antisense inhibition of human glucose-6-phosphatase translocase mRNA in HepG2 cells (Table 11); assay type: cell-based; parameters: concentration or dose not given beside the values; conditions: LIPOFECTIN, mRNA by real-time PCR
How it was run: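 HepG2 cells at 65-75% confluency transfected with 2′-MOE gapmer oligonucleotides using LIPOFECTIN (2.5 or 3 μg/mL per 100 nM oligo) for 4-7 h and harvested 16-24 h later. Target mRNA measured by RT real-time PCR and normalized to GAPDH or RiboGreen total RNA.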

[2] = tested on: glucose-6-phosphatase translocase mRNA; test: Target reduction in liver: rat dose-response study (Table 12); assay type: in vivo; conditions: Sprague-Dawley rats; for % Inhibition, target reduction in liver: three weeks
Description: (§1) Each treatment group was comprised of 4 animals.
At the end of the treatment period, animals were sacrificed and target reduction in liver was measured by real-time PCR as described in other examples herein. Results are shown in Table 12 as the average percent reduction in glucose-6-phosphatase translocase levels as compared to saline treated control.

[3] = Plasma glucose, cholesterol and triglycerides in normal Sprague-Dawley rats (Table 14); assay type: in vivo, rat; parameters: plasma GLUCOSE WK 0 / plasma GLUCOSE WK 3: unit not given beside the values
Description: as §1
To further assess the physiological effects resulting from inhibition of target mRNA, the rats were evaluated at the beginning (Wk 0) and at the end (Wk 3) of the treatment period for plasma glucose, plasma cholesterol, and plasma triglyceride levels. Triglycerides and cholesterol were measured by routine clinical analyzer instruments (e.g. Olympus Clinical Analyzer, Melville, N.Y.). Glucose levels were measured using a glucose analyzer, for example a YSI glucose analyzer (YSI Scientific, Yellow Springs, Ohio). Results are presented in Table 14 as the average level of plasma glucose, plasma cholesterol (CHOL), or plasma triglycerides (TRIG) measured per treatment group.

[4] = tested on: mouse glucose-6-phosphatase translocase mRNA; test: Antisense inhibition of mouse glucose-6-phosphatase translocase mRNA in primary mouse hepatocytes, 150 nM, LIPOFECTIN (Table 22); assay type: cell-based; conditions: real-time PCR
How it was run: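 Primary CD-1 mouse hepatocytes at 65-75% confluency transfected ~4-7 h at 37° C with 150 nM 5-10-5 2′-MOE gapmer phosphorothioate oligonucleotides plus LIPOFECTIN (2.5 or 3 μg/mL per 100 nM). Harvested 16-24 h post-treatment; mRNA by real-time RT-PCR, normalized to GAPDH or RiboGreen total RNA, expressed as percent inhibition.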

[5] = Body weight and tissue weights of normal Sprague-Dawley rats (Table 13); conditions: for Spleen weight / Fat weight / Kidney weight / Liver weight: end of study
Description: For three weeks, male Sprague-Dawley rats were injected twice-weekly with doses of 12.5 mg/kg, 25 mg/kg, or 50 mg/kg of ISIS 145760, ISIS 359543, or ISIS 366228. Each treatment group was comprised of 4 animals. Animals which received twice weekly injections of saline served as controls.
Body weight was monitored throughout the study period. […] Tissue weights were also measured at the end of the study.

[6] = tested on: rat glucose-6-phosphatase translocase mRNA; test: Reduction of glucose-6-phosphatase translocase mRNA in liver or kidney of ZDF rats (Table 15); assay type: in vivo; conditions: Rattus norvegicus, rosiglitazone alone 3 mg/kg daily in food
Description: Saline-injected animals served as a control treatment group. At the end of the treatment period, animals were sacrificed and target reduction in liver and kidney were measured by real-time PCR as described in other examples herein. […] For example, the following primer-probe set was designed to hybridize to rat glucose-6-phosphatase translocase sequences cited in Table 1: Forward primer: [NT] (incorporated herein as SEQ ID NO: 339) Reverse primer: [NT] (incorporated herein as SEQ ID NO: 340) PCR probe: […] (incorporated herein as SEQ ID NO: 341), where FAM is the fluorescent dye and TAMRA is the quencher dye.

[7] = tested on: catalytic subunit of glucose-6-phosphatase (G6PC) mRNA; test: Reduction of catalytic subunit of glucose-6-phosphatase (G6PC) mRNA in liver or kidney of ZDF rats (Table 15); assay type: in vivo, rat; conditions: Rattus norvegicus, rosiglitazone alone 3 mg/kg daily in food
Description: (§2) Saline-injected animals served as a control treatment group.
At the end of the treatment period, animals were sacrificed and target reduction in liver and kidney were measured by real-time PCR as described in other examples herein. Also measured were reductions in the catalytic subunit of glucose-6-phosphatase (G6PC) using a primer-probe set designed to hybridize to that mRNA. For example, the following primer-probe set was designed to hybridize to rat glucose-6-phosphatase translocase sequences cited in Table 1:
Results for each treatment group are shown in Table 15 as the average percent reduction in glucose-6-phosphatase translocase levels or in G6PC as compared to saline treated control.

[8] = Plasma glucose levels of ZDF rats, alone or in combination with rosiglitazone (Table 16); assay type: in vivo, rat; conditions: rosiglitazone alone 3 mg/kg daily
Description: as §2
Plasma glucose levels were evaluated at the beginning of the study (Wk 0), during the first week of treatment (Wk 1), during the third week of treatment (Wk 3), and during the fifth week of treatment (Wk 5).

aged Zucker fa/fa rats = test: Oral glucose tolerance test in ZDF rats (Table 17); assay type: in vivo, rat; conditions: week 3, rosiglitazone alone 3 mg/kg daily
Description: as §2
To further evaluate the effects of ISIS 366228 alone or in combination with rosiglitazone, oral glucose tolerance tests were performed during the third week of treatment. To provide a baseline glucose level, fasted blood glucose levels were measured before the challenge. Glucose was administered by oral gavage via an 18 gauge gavage needle at a dose of 1 g/kg. Plasma glucose levels were measured for 15, 30, 60, 90, and 120 minutes post-challenge, using a glucose analyzer (for example, an Ascencia Glucometer Elite XL, Bayer, Tarrytown, N.Y.).

[9] = Plasma lipids (cholesterol, triglycerides, free fatty acids) in ZDF rats (Table 21); assay type: in vivo, rat
Description: as §2
To further assess the physiological effects resulting from inhibition of target mRNA with antisense oligonucleotide alone or in combination with rosiglitazone, the rats were evaluated throughout the treatment period for plasma free fatty acids, plasma cholesterol, and plasma triglyceride levels. Free fatty acids, triglycerides and cholesterol were measured by routine clinical analyzer instruments (e.g. Olympus Clinical Analyzer, Melville, N.Y.). Glucose levels were measured using a glucose analyzer, for example a YSI glucose analyzer (YSI Scientific, Yellow Springs, Ohio).

[10] = Body weights of ZDF rats (Table 18); conditions: for Body weight: rosiglitazone alone 3 mg/kg daily
[11] = Liver transaminases ALT and AST in ZDF rats; conditions: week 5
Description: (§3) Male Zucker fa/fa rats, about 17 to 18 weeks of age, purchased from Charles River Laboratories (Wilmington, Mass.), are maintained on a normal rodent diet. Animals are placed into treatment groups of 8 animals each. […] Another treatment group received the food-administered daily doses of 3 mg/kg of rosiglitazone alone. Saline-injected animals served as a control treatment group.
The liver transaminases, ALT and AST, were measured throughout the study.

[12] = Body fat percentage by MRI in Zucker rats (Table 19); conditions: for % Fat: MRI, rosiglitazone alone 3 mg/kg daily
Description: as §3
Also monitored throughout the study was body composition. Baseline body composition was measured by MRI prior to the start of treatment (BL). Body composition was also measured during week 3 (Wk 3) and during week 5 (Wk 5) of treatment.

[13] = Tissue weights (kidney, spleen, liver, fat pad) of ZDF rats (Table 20); conditions: end of study, rosiglitazone alone
Description: Male Zucker fa/fa rats, about 17 to 18 weeks of age, purchased from Charles River Laboratories (Wilmington, Mass.), are maintained on a normal rodent diet. Animals are placed into treatment groups of 8 animals each. One treatment group was dosed subcutaneously twice weekly with 12.5 mg/kg of ISIS 366228 (SEQ ID NO: 203). Another treatment group was dosed twice weekly with 25 mg/kg of ISIS 366228. Other treatment groups were dosed with 12.5 mg/kg or 25 mg/kg ISIS 366228 twice weekly in combination with daily 3 mg/kg doses of rosiglitazone (Rosi) administered in powdered food. Another treatment group received the food-administered daily doses of 3 mg/kg of rosiglitazone alone. Saline-injected animals served as a control treatment group.
Tissue weights were also determined at the end of the study.

CGGCCCATCTTGGTGCGGAT (e[5mC]*eG*eG*e[5mC]*e[5mC]*d[5mC]*dA*dT*d[5mC]*dT*dT*dG*dG*dT*dG*e[5mC]*eG*eG*eA*eT; antisense) [ISIS 145706]
% Inhib [1]: 96%
% Inhibition, target reduction in liver ([2]; 12.5 mg/kg twice weekly): 12%
% Inhibition, target reduction in liver ([2]; 25 mg/kg twice weekly): 56%
% Inhibition, target reduction in liver ([2]; 50 mg/kg twice weekly): 77%
target mRNA levels in rat liver (in words) ([2]; 12.5 to 50 mg/kg): effective in reducing target mRNA levels in rat liver in a dose-dependent manner
plasma cholesterol (CHOL) WK 3 ([3]; 12.5 mg/kg twice weekly, saline 58): 51
plasma triglycerides (TRIG) WK 0 ([3]; 12.5 mg/kg twice weekly, saline 69): 54
plasma cholesterol (CHOL) WK 0 ([3]; 12.5 mg/kg twice weekly, saline 74): 69
plasma GLUCOSE WK 0 ([3]; 12.5 mg/kg twice weekly, saline 135): 149
plasma GLUCOSE WK 3 ([3]; 12.5 mg/kg twice weekly, saline 139): 151
plasma triglycerides (TRIG) WK 3 ([3]; 12.5 mg/kg twice weekly, saline 140): 61
plasma GLUCOSE WK 0 ([3]; 25 mg/kg twice weekly): 149
plasma GLUCOSE WK 3 ([3]; 25 mg/kg twice weekly): 148
plasma cholesterol (CHOL) WK 0 ([3]; 25 mg/kg twice weekly): 80
plasma cholesterol (CHOL) WK 3 ([3]; 25 mg/kg twice weekly): 59
plasma triglycerides (TRIG) WK 0 ([3]; 25 mg/kg twice weekly): 45
plasma triglycerides (TRIG) WK 3 ([3]; 25 mg/kg twice weekly): 58
plasma GLUCOSE WK 0 ([3]; 50 mg/kg twice weekly): 148
plasma GLUCOSE WK 3 ([3]; 50 mg/kg twice weekly): 151
plasma cholesterol (CHOL) WK 0 ([3]; 50 mg/kg twice weekly): 79
plasma cholesterol (CHOL) WK 3 ([3]; 50 mg/kg twice weekly): 57
plasma triglycerides (TRIG) WK 0 ([3]; 50 mg/kg twice weekly): 66
plasma triglycerides (TRIG) WK 3 ([3]; 50 mg/kg twice weekly): 52
plasma triglycerides (in words) ([3]; 12.5 to 50 mg/kg, three weeks): prevented the increases in triglycerides observed in saline-treated animals
% Inhib of mouse glucose-6-phosphatase translocase mRNA levels [4]: 54%
Spleen weight ([5]; 12.5 mg/kg twice weekly, saline 0.7): 0.7 grams
Fat weight ([5]; 12.5 mg/kg twice weekly, saline 1.8): 1.5 grams
Kidney weight ([5]; 12.5 mg/kg twice weekly, saline 3): 3 grams
Liver weight ([5]; 12.5 mg/kg twice weekly, saline 15): 15 grams
Body weight ([5]; 12.5 mg/kg twice weekly, week 3, saline 290): 289 grams
Fat weight ([5]; 25 mg/kg twice weekly): 1.3 grams
Kidney weight ([5]; 25 mg/kg twice weekly): 3 grams
Liver weight ([5]; 25 mg/kg twice weekly): 15 grams
Spleen weight ([5]; 25 mg/kg twice weekly): 1.0 grams
Body weight ([5]; 25 mg/kg twice weekly, week 3): 300 grams
Fat weight ([5]; 50 mg/kg twice weekly): 1.2 grams
Kidney weight ([5]; 50 mg/kg twice weekly): 3 grams
Liver weight ([5]; 50 mg/kg twice weekly): 16 grams
Spleen weight ([5]; 50 mg/kg twice weekly): 0.9 grams
Body weight ([5]; 50 mg/kg twice weekly, week 3): 290 grams
Increases in body weights (in words) ([5]; 12.5 to 50 mg/kg, throughout the study): comparable to the increases in body weight observed for saline-treated control animals

CN(CCOc1ccc(CC2SC(=O)NC2=O)cc1)c1ccccn1 (stereo not drawn) [Rosiglitazone, rosiglitazone, reference compound]
inhibition at 3 mg/kg ([6]; read-out: % Inhibition of glucose-6-phosphatase translocase, Kidney): 0%
inhibition at 3 mg/kg ([6]; read-out: % Inhibition of glucose-6-phosphatase translocase, Liver): 46%
inhibition at 3 mg/kg ([7]; read-out: % Inhibition of G6PC, Kidney): 5%
inhibition at 3 mg/kg ([7]; read-out: % Inhibition of G6PC, Liver): 63%
Plasma glucose ([8]; Wk 0): 570 mg/dL
Plasma glucose ([8]; Wk 1): 462 mg/dL
Plasma glucose ([8]; Wk 3): 487 mg/dL
Plasma glucose ([8]; Wk 5): 498 mg/dL
plasma glucose, OGTT (aged Zucker fa/fa rats; 0 min (fasted)): 251 mg/dL
plasma glucose, OGTT (aged Zucker fa/fa rats; 15 min): 429 mg/dL
plasma glucose, OGTT (aged Zucker fa/fa rats; 30 min): 490 mg/dL
plasma glucose, OGTT (aged Zucker fa/fa rats; 60 min): 417 mg/dL
plasma glucose, OGTT (aged Zucker fa/fa rats; 90 min): 409 mg/dL
plasma glucose, OGTT (aged Zucker fa/fa rats; 120 min): 384 mg/dL
plasma cholesterol (CHOL) ([9]; Wk 0, rosiglitazone alone): 202 mg/dL
plasma triglycerides (TRIG) ([9]; Wk 0, rosiglitazone alone): 478 mg/dL
plasma cholesterol (CHOL) ([9]; Wk 1, rosiglitazone alone): 217 mg/dL
plasma triglycerides (TRIG) ([9]; Wk 1, rosiglitazone alone): 300 mg/dL
plasma cholesterol (CHOL) ([9]; Wk 3, rosiglitazone alone): 220 mg/dL
plasma triglycerides (TRIG) ([9]; Wk 3, rosiglitazone alone): 327 mg/dL
plasma cholesterol (CHOL) ([9]; Wk 5, rosiglitazone alone): 234 mg/dL
plasma triglycerides (TRIG) ([9]; Wk 5, rosiglitazone alone): 384 mg/dL
body weight (in words) [10]: associated with increased body weight
Body weight ([10]; Wk 0): 404 g
Body weight ([10]; Wk 1): 422 g
Body weight ([10]; Wk 2): 444 g
Body weight ([10]; Wk 3): 453 g
Body weight ([10]; Wk 4): 465 g
liver transaminases ALT and AST (in words) [11]: reductions in levels of these indicators of liver function
body fat percentage (in words) [12]: resulted in increased body fat
% Fat ([12]; BL (baseline)): 24%
% Fat ([12]; Wk 3): 32%
% Fat ([12]; Wk 5): 36%
Fat pad weight [13]: 9 grams
Kidney weight [13]: 4 grams
Liver weight [13]: 21 grams
Spleen weight [13]: 0.6 grams
